Reference: patent publication US9814659B2, “Methods of lightening the skin” (Johnson & Johnson Consumer Inc., priority 2012, dated 2017)

Test system: MatTek's MelanoDerm skin epidermal equivalent tissues (MEL-300-B; NHEK and NHM)
Assay: Skin Epidermal Equivalents Model as a Skin Lightening Test (ΔL)
Format: cell-based, human
Excerpt: Skin Epidermal Equivalents Model as a Skin Lightening Test (ΔL)
Skin epidermal equivalent tissues are available commercially from MatTek's MelanoDerm™ System and were used for the following tests. MatTek's MelanoDerm™ System consists of normal, human-derived epidermal keratinocytes (NHEK) and melanocytes (NHM) which have been cultured to form a multilayered, highly differentiated model of the human epidermis. Specifically, MEL-300-B tissues, each 9 mm in diameter were used in the following tests.
The test materials prepared in an appropriate vehicle and tested concentrations were applied topically to the skin model daily and the experiment lasted for 8 days. Measurement was taken on day 9.
The macroscopic and microscopic visual tissue darkening end points were measured by taking pictures with a digital camera. The Degree of Lightness for each tissue (L-Value) was measured using a spectrophotometer (Konica Minolta CM-2600d). The ΔL (degree of lightness as compared to control) for each test sample is calculated as per following formula: ΔL=L-value of treated sample−L-value of control sample.

With `CC(C)=CCCC(C)=CCCC(C)=CCOc1ccc(CCC(=O)O)cc1` [M-1, 3-(4-Farnesyloxyphenyl)propionic acid] the “Skin Lightening (ΔL Value)” value (concentration 0.5%, topical daily for 8 days, measured day 9) was 1.2 and the “Skin lightening efficacy compared with first extract E1” value (same concentration (0.5%) as E1) was “equal to first extract E1”.
